US9926588B2, “Method for testing and screening P38 MAP kinase modifiers” (THE TRUSTEES OF THE UNIVERSITY OF PENNSYLVANIA, priority 2007, dated 2018)

What was measured:
[1] = tested on: SMN sub-cellular localization in HeLa PV cells; assay: SMN sub-cellular localization by indirect immunofluorescence (anti-SMN 2B1); assay type: cell-based; details: for redistribution of SMN from the cytoplasm to the nucleus (accumulation of SMN in the nucleus): short treatment (2-6 hours); for immunostaining of SMN showing nuclear accumulation (FIG. 8): emetine, puromycin, thapsigargin 10 μM, tunicamycin 10 μg/ml; for concentration dependence of the effect on nuclear localization of SMN: HeLa cells (CHX FIG. 3b; VPA 2-10 mM FIG. 5b); for nuclear translocation of SMN at longer times: >24 hr (FIG. 5a)
Experimental: (§1) HeLa PV were cultured in Dulbecco's modified Eagle's medium (Invitrogen) supplemented with 10% fetal bovine serum (Invitrogen). For screening, cells were seeded onto 384-well plates or, for specific experiments, on glass coverslips the day before treatment. Compounds were added directly into the culture medium to the indicated concentration and the cells were then maintained at 37° C. in a 5% CO2 humidified atmosphere for the duration of the treatment. Dispensing of compounds and other automatic liquid handling steps were performed with a Beckman FX multi-channel system equipped with Hudson Crane robotic systems.
(§2) The following mouse monoclonal antibodies were used for indirect immunofluorescence: 2B1 (anti-SMN), 2E17 (anti-Gemin2), 12H12 (anti-Gemin3), 10G11 (anti-Gemin5), 6E2 (anti-Gemin7), 10E10 (anti-PABP), 6BG10 (anti-FXR1), Y12 (anti-Sm) and 9H10 (anti-hnRNP A1). An affinity-purified rabbit polyclonal antibody was used to detect Gemin6.
(§3) Indirect immunofluorescence on HeLa PV cells was performed as follows: HeLa cells, plated on glass coverslips, were briefly washed with PBS, fixed in 2% formaldehyde/PBS for 20 minutes at room temperature, permeabilized in 0.5% Triton X-100/PBS for 5 min at room temperature. Cells were blocked in 3% bovine serum albumin for 1 hour at room temperature. Double-label immunofluorescence experiments were performed by separate sequential incubations of each primary antibody, diluted in PBS containing 3% bovine serum albumin, followed by the specific secondary coupled to fluorescein isothiocyanate or TXRD. All incubations were at room temperature for 1 hour. Indirect epifluorescence microscopy was performed with a Nikon Eclipse E800 microscope. Digital images were collected with a Cook Sensicam high performance camera and processed with the IP laboratory software. Processing of samples for immunofluorescence microscopy on cells cultured in 384-well plates was automated and performed with the aid of microplate washers (ELX405, Bio-Tek) in a similar manner to that previously used for individual samples on glass slides. The cells were also stained with DAPI to allow definition of the nucleus in each cell. Digital images were acquired with an automated microscopy and analysis system (IN Cell Analyzer 1000, GE Healthcare). Images were analyzed using automated algorithms with parameters set to calculate mean pixel intensity in each nucleus (defined by DAPI staining and acquired in a separate channel), cytoplasm, and total cell, as well as the relevant calculated ratios of these values.
Based on the results obtained in Example 1, a library of ˜5,000 biologically active small molecules was screened on HeLa cells in 384-well plates. Each well was incubated with a different compound (at 10 μM) and the cells were processed for indirect immunofluorescence. Digital images were collected from six fields in each well and analyzed using imaging algorithms for multiple parameters including relative nuclear and cytoplasmic intensities, and number, size and signal intensity of Gems. DAPI-stained images were collected in a separate channel to define the boundary of each nucleus. Images of individual fields in wells were flagged by the software as showing a significant change in SMN sub-cellular localization. These individual wells were examined directly, and active compounds were re-tested for verification (FIG. 2).

[2] = tested on: p38 MAPK; assay: Effect of p38 MAPK activators and inhibitors on SMN complex components relocalization under protein synthesis inhibition; assay type: cell-based; details: for SMN accumulation in the nucleus in the presence of a protein synthesis inhibitor: with a protein synthesis inhibitor such as cycloheximide
Experimental: as §1, §3
Next, the effect of p38 MAPK activators and inhibitors on SMN complex components relocalization under conditions of protein synthesis inhibition was monitored.

[3] = tested on: Gemins 2, 3, 5, 6 and 7 localization in HeLa cells; assay: Immunostaining of Gemins (SMN complex components) in treated cells; assay type: cell-based
Experimental: as §2
Indirect immunofluorescence on HeLa PV cells was performed as follows: HeLa cells, plated on glass coverslips, were briefly washed with PBS, fixed in 2% formaldehyde/PBS for 20 minutes at room temperature, permeabilized in 0.5% Triton X-100/PBS for 5 min at room temperature. Cells were blocked in 3% bovine serum albumin for 1 hour at room temperature. Double-label immunofluorescence experiments were performed by separate sequential incubations of each primary antibody, diluted in PBS containing 3% bovine serum albumin, followed by the specific secondary coupled to fluorescein isothiocyanate or TXRD. All incubations were at room temperature for 1 hour. Indirect epifluorescence microscopy was performed with a Nikon Eclipse E800 microscope. […] Images were analyzed using automated algorithms with parameters set to calculate mean pixel intensity in each nucleus (defined by DAPI staining and acquired in a separate channel), cytoplasm, and total cell, as well as the relevant calculated ratios of these values. […]

[4] = tested on: HeLa cells; assay: Cell viability / toxicity of treated cells; details: overnight treatment with 10 μM CHX
[5] = tested on: hnRNP A1, PABP, FXR1 and snRNPs localization in HeLa cells; assay: Localization of other nuclear and cytoplasmic proteins (specificity); assay type: cell-based; details: 6 hrs of 10 μM CHX (FIG. 3c)
Experimental: as §2
Indirect immunofluorescence on HeLa PV cells was performed as follows: HeLa cells, plated on glass coverslips, were briefly washed with PBS, fixed in 2% formaldehyde/PBS for 20 minutes at room temperature, permeabilized in 0.5% Triton X-100/PBS for 5 min at room temperature. Cells were blocked in 3% bovine serum albumin for 1 hour at room temperature. Double-label immunofluorescence experiments were performed by separate sequential incubations of each primary antibody, diluted in PBS containing 3% bovine serum albumin, followed by the specific secondary coupled to fluorescein isothiocyanate or TXRD. All incubations were at room temperature for 1 hour. Indirect epifluorescence microscopy was performed with a Nikon Eclipse E800 microscope. […] Images were analyzed using automated algorithms with parameters set to calculate mean pixel intensity in each nucleus (defined by DAPI staining and acquired in a separate channel), cytoplasm, and total cell, as well as the relevant calculated ratios of these values.

CC[C@H]1CN2CCc3cc(OC)c(OC)cc3[C@@H]2C[C@@H]1C[C@H]1NCCc2cc(OC)c(OC)cc21 [emetine]
redistribution of SMN from the cytoplasm to the nucleus (accumulation of SMN in the nucleus) ([1]; HeLa cells): showed the same effect as cycloheximide | immunostaining of SMN showing nuclear accumulation (FIG. 8) ([1]; HeLa cells): nuclear accumulation

TNFα
localization of SMN complex component, p38 MAPK activator combined with CHX ([2]; 150 ng/ml TNFα + 10 μM CHX, HeLa cells, FIG. 6): still remained in the cytoplasm | localization of SMN complex components, p38 MAPK activator alone ([2]; 150 ng/ml TNFα, HeLa cells, FIG. 6): accumulation of SMN complex components in the cytoplasm | SMN accumulation in the nucleus in the presence of a protein synthesis inhibitor [2]: inhibit SMN accumulation in the nucleus

COc1ccc(C[C@H]2NC[C@H](O)[C@H]2OC(C)=O)cc1 [Anisomycin]
localization of SMN complex components, Anisomycin alone ([2]; treated cell (FIG. 6: 1 μg/ml Anisomycin)): accumulate in the cytoplasm | SMN accumulation in the nucleus in the presence of a protein synthesis inhibitor [2]: inhibit SMN accumulation in the nucleus

CCCC(CCC)C(=O)O [valproic acid]
concentration dependence of the effect on nuclear localization of SMN [1]: clear concentration dependence effect | nuclear translocation of SMN at longer times ([1]; HeLa cells): caused the same effect as protein synthesis inhibitors | localization of Gemin3 and Gemin5 ([3]; 24 hour treatment with VPA (FIG. 5c)): remain predominantly cytoplasmic

COc1ccc(C[C@H](N)C(=O)N[C@H]2[C@@H](O)[C@H](n3cnc4c(N(C)C)ncnc43)O[C@@H]2CO)cc1 [puromycin]
redistribution of SMN from the cytoplasm to the nucleus (accumulation of SMN in the nucleus) ([1]; HeLa cells): showed the same effect as cycloheximide | immunostaining of SMN showing nuclear accumulation (FIG. 8) ([1]; HeLa cells): nuclear accumulation

tunicamycin
redistribution of SMN from the cytoplasm to the nucleus (accumulation of SMN in the nucleus) ([1]; HeLa cells): caused SMN to accumulate in the nucleus | immunostaining of SMN showing nuclear accumulation (FIG. 8) ([1]; HeLa cells): nuclear accumulation

Oc1ccc(-c2nc(-c3ccncc3)c(-c3ccc(F)cc3)[nH]2)cc1 [SB202190]
localization of SMN complex components, p38 MAPK inhibitor combined with Anisomycin ([2]; 10 μM SB202190 + 1 μg/ml Anisomycin, HeLa cells, FIG. 6): accumulation of SMN complex components in the nucleus | localization of SMN complex components, p38 MAPK inhibitor combined with CHX ([2]; 10 μM SB202190 + 10 μM CHX, HeLa cells, FIG. 6): accumulation of SMN complex components in the nucleus

C[C@@H]1C[C@@H]([C@H](O)CC2CC(=O)NC(=O)C2)C(=O)[C@@H](C)C1 [cycloheximide]
treatment time after which little SMN was detected in the cytoplasm ([1]; HeLa cells): ≥ 8 h | treatment time after which the effect on SMN redistribution was evident ([1]; HeLa cells): 2 h | concentration dependence of the effect on nuclear localization of SMN [1]: concentration-dependent | concentrations exhibiting a clear effect on redistribution of SMN from the cytoplasm to the nucleus ([1]; HeLa cells, FIG. 3a,b): 0.1 to 40 µM | redistribution of SMN from the cytoplasm to the nucleus (accumulation of SMN in the nucleus) ([1]; HeLa cells): most striking accumulation of SMN in the nucleus | reversibility of SMN nuclear accumulation ([1]; cells washed and placed in fresh medium devoid of cycloheximide): reversible | cell viability [4]: no reduction in cell viability | relocation of SMN complex components (Gemins) to the nucleus ([3]; HeLa cells, 6 hours 10 μM CHX (FIG. 4), Gemin3 and Gemin5 excepted): causes most of the components of the SMN complex to accumulate in the nucleus | localization of other nuclear and cytoplasmic proteins (hnRNP A1, PABP, FXR1, snRNPs) [5]: not significantly affected

CC(/C=C/C(=O)NO)=C\[C@@H](C)C(=O)c1ccc(N(C)C)cc1 [trichostatin A]
nuclear translocation of SMN at longer times ([1]; HeLa cells): caused the same effect as protein synthesis inhibitors

C/C=C(/C)C(=O)O[C@H]1C(C)=C2[C@H]([C@@H]1OC(=O)CCCCCCC)[C@@](C)(OC(C)=O)C[C@H](OC(=O)CCC)[C@@]1(O)[C@H]2OC(=O)[C@@]1(C)O [thapsigargin]
redistribution of SMN from the cytoplasm to the nucleus (accumulation of SMN in the nucleus) ([1]; HeLa cells): caused SMN to accumulate in the nucleus | immunostaining of SMN showing nuclear accumulation (FIG. 8) ([1]; HeLa cells): nuclear accumulation

O=C(CCCCCN1C(=O)c2cccc3cccc(c23)C1=O)NO [scriptaid]
nuclear translocation of SMN at longer times ([1]; HeLa cells): caused the same effect as protein synthesis inhibitors

CCOC(=O)CN1C(=O)CC(C[C@@H](O)[C@@H]2C[C@@H](C)C[C@H](C)C2=O)CC1=O [cycloheximide-N-ethylethanoate]
redistribution of SMN from the cytoplasm to the nucleus (accumulation of SMN in the nucleus) ([1]; HeLa cells): did not show any effect
